In general, solubility refers to how much of the substance goes into solution per volume.

2 compounds from patent US7488855B2 (CJ Corporation, priority 2004, dated 2009) can be followed below.

Values after ≈ are worked out from the molar mass of the structure shown.

The nature of this data set: Solubility in ethyl acetate by fractionation and phase separation, HPLC analysis of the solvent layer. It counts as physicochemical.

With `OCC(O)CO` [glycerol], the solubility at 2 h (organic solvent or mixture) was 3000 to 6000 µg/mL (≈ 32.6 to 65.2 mM).

On to `CC(O)CO` (centres unmarked) [1,2-propanediol], for which, for the setting “ethyl acetate, mixture 10:1:2:2 dissolved at 30-100 g/L 1,3-propanediol, left alone for 2 hours, upper solvent layer analysed by HPLC”, the “solubility in EA” value lay in the range of 5 to 7 g/L.
